Values of other authors, collected in PMC12802961 (Journal of Antimicrobial Chemotherapy, 2025).
Like-named read-outs stand apart in the source and are kept apart here.

Conditions: cited from earlier work

Compound | Ct (threshold concentration) (ceftazidime/avibactam) | Ct (threshold concentration) (ceftolozane/tazobactam)
NC(=O)[C@@H]1CC[C@@H]2CN1C(=O)N2OS(=O)(=O)O [avibactam] | 1 mg/L | –
C[C@]1(Cn2ccnn2)[C@H](C(=O)O)N2C(=O)C[C@H]2S1(=O)=O [tazobactam] | – | 0.5 mg/L
